≈ marks a conversion by molar mass, not a printed value.
Legend:
Assay type in all cases: functional
Staphylococcus aureus [1] = experiment: Antibacterial activity against Staphylococcus aureus clinical isolate 9 assessed as growth inhibition after 16 to 18 hr by NCCLS agar dilution method
Staphylococcus aureus [2] = experiment: Bactericidal activity against Staphylococcus aureus clinical isolate after 24 hr
Staphylococcus aureus [3] = experiment: Bactericidal activity against methicillin-resistant Staphylococcus aureus isolate 3 after 24 hr; conditions: isolate 3, 24 h
Staphylococcus aureus [4] = experiment: Bactericidal activity against methicillin-resistant Staphylococcus aureus after 24 hr
Staphylococcus aureus [5] = experiment: Bactericidal activity against Staphylococcus aureus clinical isolate 6 after 24 hr; conditions: isolate 6, 24 h
Staphylococcus aureus [6] = experiment: Antibacterial activity against Staphylococcus aureus ATCC 25923 assessed as growth inhibition after 16 to 18 hr by NCCLS agar dilution method
Staphylococcus aureus [7] = experiment: Antibacterial activity against Staphylococcus aureus clinical isolate 2 assessed as growth inhibition after 16 to 18 hr by NCCLS agar dilution method
Staphylococcus aureus [8] = experiment: Bactericidal activity against Staphylococcus aureus clinical isolate 9 after 24 hr; conditions: isolate 9, 24 h
Staphylococcus aureus [9] = experiment: Bactericidal activity against Staphylococcus aureus clinical isolate 1 after 24 hr; conditions: isolate 1, 24 h
Staphylococcus aureus [10] = experiment: Antibacterial activity against methicillin-resistant Staphylococcus aureus isolate 1 assessed as growth inhibition after 16 to 18 hr by NCCLS agar dilution method
Staphylococcus aureus [11] = experiment: Antibacterial activity against methicillin-resistant Staphylococcus aureus isolate 5 assessed as growth inhibition after 16 to 18 hr by NCCLS agar dilution method
Staphylococcus aureus [12] = experiment: Bactericidal activity against methicillin-resistant Staphylococcus aureus isolate 2 after 24 hr; conditions: isolate 2, 24 h
Staphylococcus aureus [13] = experiment: Antibacterial activity against Staphylococcus aureus clinical isolate 1 assessed as growth inhibition after 16 to 18 hr by NCCLS agar dilution method
Staphylococcus aureus [14] = experiment: Bactericidal activity against Staphylococcus aureus clinical isolate 10 after 24 hr; conditions: isolate 10, 24 h
Staphylococcus aureus [15] = experiment: Bactericidal activity against Staphylococcus aureus clinical isolate 4 after 24 hr; conditions: isolate 4, 24 h
Staphylococcus aureus [16] = experiment: Bactericidal activity against Staphylococcus aureus clinical isolate 2 after 24 hr; conditions: isolate 2, 24 h
Staphylococcus aureus [17] = experiment: Antibacterial activity against methicillin-resistant Staphylococcus aureus assessed as growth inhibition after 16 to 18 hr by NCCLS agar dilution method
Staphylococcus aureus [18] = experiment: Antibacterial activity against methicillin-resistant Staphylococcus aureus isolate 3 assessed as growth inhibition after 16 to 18 hr by NCCLS agar dilution method
Staphylococcus aureus [19] = experiment: Bactericidal activity against Staphylococcus aureus clinical isolate 7 after 24 hr; conditions: isolate 7, 24 h
Staphylococcus aureus [20] = experiment: Antibacterial activity against methicillin-resistant Staphylococcus aureus isolate 2 assessed as growth inhibition after 16 to 18 hr by NCCLS agar dilution method
Staphylococcus aureus [21] = experiment: Antibacterial activity against Staphylococcus aureus clinical isolate 4 assessed as growth inhibition after 16 to 18 hr by NCCLS agar dilution method
Staphylococcus aureus [22] = experiment: Antibacterial activity against Staphylococcus aureus clinical isolate 5 assessed as growth inhibition after 16 to 18 hr by NCCLS agar dilution method
Staphylococcus aureus [23] = experiment: Antibacterial activity against Staphylococcus aureus clinical isolate 8 assessed as growth inhibition after 16 to 18 hr by NCCLS agar dilution method
Staphylococcus aureus [24] = experiment: Antibacterial activity against Staphylococcus aureus clinical isolate assessed as growth inhibition after 16 to 18 hr by NCCLS agar dilution method
Staphylococcus aureus [25] = experiment: Bactericidal activity against Staphylococcus aureus clinical isolate 3 after 24 hr; conditions: isolate 3, 24 h
Staphylococcus aureus [26] = experiment: Bactericidal activity against methicillin-resistant Staphylococcus aureus isolate 5 after 24 hr; conditions: isolate 5, 24 h
Staphylococcus aureus [27] = experiment: Antibacterial activity against methicillin-resistant Staphylococcus aureus isolate 4 assessed as growth inhibition after 16 to 18 hr by NCCLS agar dilution method
Staphylococcus aureus [28] = experiment: Bactericidal activity against methicillin-resistant Staphylococcus aureus isolate 4 after 24 hr; conditions: isolate 4, 24 h
Staphylococcus aureus [29] = experiment: Bactericidal activity against Staphylococcus aureus clinical isolate 5 after 24 hr; conditions: isolate 5, 24 h
Staphylococcus aureus [30] = experiment: Antibacterial activity against Staphylococcus aureus clinical isolate 3 assessed as growth inhibition after 16 to 18 hr by NCCLS agar dilution method
Staphylococcus aureus [31] = experiment: Antibacterial activity against Staphylococcus aureus clinical isolate 7 assessed as growth inhibition after 16 to 18 hr by NCCLS agar dilution method
Staphylococcus aureus [32] = experiment: Bactericidal activity against methicillin-resistant Staphylococcus aureus isolate 1 after 24 hr; conditions: isolate 1, 24 h
Staphylococcus aureus [33] = experiment: Bactericidal activity against Staphylococcus aureus clinical isolate 8 after 24 hr; conditions: isolate 8, 24 h
Staphylococcus aureus [34] = experiment: Antibacterial activity against Staphylococcus aureus clinical isolate 6 assessed as growth inhibition after 16 to 18 hr by NCCLS agar dilution method
Staphylococcus aureus [35] = experiment: Antibacterial activity against Staphylococcus aureus clinical isolate 10 assessed as growth inhibition after 16 to 18 hr by NCCLS agar dilution method
Pseudomonas aeruginosa = experiment: Antibacterial activity against Pseudomonas aeruginosa ATCC 27853 assessed as growth inhibition after 16 to 18 hr NCCLS agar dilution method
Escherichia coli = experiment: Antibacterial activity against Escherichia coli ATCC 25922 assessed as growth inhibition after 16 to 18 hr NCCLS agar dilution method

Row | SMILES | MIC (Staphylococcus aureus [1]) | MBC (Staphylococcus aureus [3]) | MBC50 (Staphylococcus aureus [4]) | MBC90 (Staphylococcus aureus [4]) | MBC (Staphylococcus aureus [5]) | MIC (Staphylococcus aureus [6]) | MIC (Staphylococcus aureus [7]) | MBC (Staphylococcus aureus [8]) | MBC (Staphylococcus aureus [9]) | MIC (Staphylococcus aureus [10]) | MIC (Staphylococcus aureus [11]) | MBC (Staphylococcus aureus [12]) | MIC (Staphylococcus aureus [13]) | MBC (Staphylococcus aureus [14]) | MBC (Staphylococcus aureus [15]) | MBC (Staphylococcus aureus [16]) | MIC50 (Staphylococcus aureus [17]) | MIC90 (Staphylococcus aureus [17]) | MIC (Staphylococcus aureus [18]) | MBC (Staphylococcus aureus [19]) | also measured
1 | CCCCCCCCCC(=O)CC=O [HOUTTUYNIN] | 64 µg/mL (≈ 323 µM) | 64 µg/mL (≈ 323 µM) | 64 µg/mL (≈ 323 µM) | 128 µg/mL (≈ 645 µM) | 128 µg/mL (≈ 645 µM) | 32 µg/mL (≈ 161 µM) | 64 µg/mL (≈ 323 µM) | 256 µg/mL (≈ 1290 µM) | 64 µg/mL (≈ 323 µM) | 16 µg/mL (≈ 80.7 µM) | 16 µg/mL (≈ 80.7 µM) | 128 µg/mL (≈ 645 µM) | 64 µg/mL (≈ 323 µM) | 128 µg/mL (≈ 645 µM) | 128 µg/mL (≈ 645 µM) | 64 µg/mL (≈ 323 µM) | 16 µg/mL (≈ 80.7 µM) | 16 µg/mL (≈ 80.7 µM) | 16 µg/mL (≈ 80.7 µM) | 64 µg/mL (≈ 323 µM) | MBC50 (60.1); MBC90 (60.2) (Staphylococcus aureus [2]; read-out: MIC50): 128 µg/mL (≈ 645 µM); MBC50 (60.1); MBC90 (60.2) (Staphylococcus aureus [2]; read-out: MIC90): 128 µg/mL (≈ 645 µM); MIC (Staphylococcus aureus [20]): 16 µg/mL (≈ 80.7 µM); MIC (Staphylococcus aureus [21]): 64 µg/mL (≈ 323 µM); MIC (Staphylococcus aureus [22]): 32 µg/mL (≈ 161 µM); MIC (Staphylococcus aureus [23]): 64 µg/mL (≈ 323 µM); MIC50 (Staphylococcus aureus [24]): 64 µg/mL (≈ 323 µM); MIC90 (Staphylococcus aureus [24]): 64 µg/mL (≈ 323 µM); MBC (Staphylococcus aureus [25]): 128 µg/mL (≈ 645 µM); MBC (Staphylococcus aureus [26]): 64 µg/mL (≈ 323 µM); MIC (Staphylococcus aureus [27]): 16 µg/mL (≈ 80.7 µM); MBC (Staphylococcus aureus [28]): 32 µg/mL (≈ 161 µM); MBC (Staphylococcus aureus [29]): 128 µg/mL (≈ 645 µM); MIC (Staphylococcus aureus [30]): 64 µg/mL (≈ 323 µM); MIC (Staphylococcus aureus [31]): 64 µg/mL (≈ 323 µM); MBC (Staphylococcus aureus [32]): 32 µg/mL (≈ 161 µM); MBC (Staphylococcus aureus [33]): 128 µg/mL (≈ 645 µM); MIC (Staphylococcus aureus [34]): 64 µg/mL (≈ 323 µM); MIC (Staphylococcus aureus [35]): 32 µg/mL (≈ 161 µM)
2 | C[C@H]1COc2c(N3CCN(C)CC3)c(F)cc3c(=O)c(C(=O)O)cn1c23.C[C@H]1COc2c(N3CCN(C)CC3)c(F)cc3c(=O)c(C(=O)O)cn1c23.O [LEVOFLOXACIN] | 0.25 µg/mL | > 16 µg/mL | >16 µg/mL | >16 µg/mL | 0.5 µg/mL | 0.25 µg/mL | 0.5 µg/mL | 0.5 µg/mL | 0.25 µg/mL | 8 µg/mL | > 16 µg/mL | > 16 µg/mL | 0.25 µg/mL | 0.5 µg/mL | 0.5 µg/mL | 0.5 µg/mL | 16 µg/mL | > 16 µg/mL | 16 µg/mL | 0.25 µg/mL | MIC (Pseudomonas aeruginosa): 0.5 µg/mL; MIC (Staphylococcus aureus [20]): 8 µg/mL; MIC (Staphylococcus aureus [21]): 0.25 µg/mL; MIC (Staphylococcus aureus [22]): 0.125 µg/mL; MIC (Staphylococcus aureus [23]): 0.25 µg/mL; MIC50 (Staphylococcus aureus [24]): 0.25 µg/mL; MIC90 (Staphylococcus aureus [24]): 0.5 µg/mL; MBC (Staphylococcus aureus [25]): 0.5 µg/mL; MBC (Staphylococcus aureus [26]): > 16 µg/mL; MIC (Staphylococcus aureus [27]): 16 µg/mL; MBC (Staphylococcus aureus [28]): > 16 µg/mL; MBC (Staphylococcus aureus [29]): 0.25 µg/mL; MIC (Escherichia coli): 0.025 µg/mL; MIC (Staphylococcus aureus [30]): 0.25 µg/mL; MIC (Staphylococcus aureus [31]): 0.25 µg/mL; MBC (Staphylococcus aureus [32]): > 16 µg/mL; MBC (Staphylococcus aureus [33]): 0.25 µg/mL; MIC (Staphylococcus aureus [34]): 0.5 µg/mL; MIC (Staphylococcus aureus [35]): 0.5 µg/mL
